The text below walks through data of patent US20040102606A1, “Histone H2A -derived peptides useful in gene delivery” (priority 2003, published 2004).

One data set is described as follows: Circular dichroism. Type of data set: physicochemical. The conditions noted are these: 70 μM in 120 mM Tris acetate pH 8; 200-260 nm. As for the experimental part: Circular dichroism experiments were performed using a Circular Dichroism Spectrometer (model 62DS) at wavelengths ranging from 200-260 nm In all cases, three readings were taken of a 300 μl sample of 70 μM histone H2A or 70 μM histone H2A-derived peptide in 120 mM Tris acetate pH 8. The average reading for every wavelength tested is plotted as a function of degrees of ellipticity.
Circular dichroism of peptide was performed on four samples: the full length histone H2A molecule, peptide 1 (36-mer), peptide P1 (17-mer) and peptide 12.
Background: Circular dichroism is widely used to follow secondary structure.

For data set [1], the system named is COS-7 cells. Briefly: X-gal staining of transfected cells. Type of data set: cell-based, African green monkey. An excerpt:
The difference between one of the effective peptides (amino acids 1-36) and the peptide composed of the first 25 amino acids is the inclusion of an α-helical motif located between amino acids 27-35.

Data set [2] has as its system COS-7 cells. Briefly: Transfection assay (β-galactosidase reporter plasmid pCMVβ complexed with H2A-derived peptide). The data set is classed as cell-based, African green monkey. The settings on record: for transfection activity (DNA delivery) at the 17-mer's own optimal concentration: much higher molar ratio than 36-mer; for transfection activity (β-galactosidase production): peptide at equimolar ratio to peak conditions of peptide 1 (36-mer), also 2× and ½× molar, FIG. 1. From the text: The transfection assay is based on an in vitro assay previously described by J. H. Felgner et al. (Feigner et al., Proc. Natl. Acad. Sci., USA, 84:7413-7417, […]) with the following modifications: COS-7 (African green monkey SV40-transformed kidney cells, American Type Culture Collection, Rockville, Md.) were maintained in Dulbecco's modified eagle's medium (Biowhittaker, Walkersville, Md.) supplemented with 10% heat inactivated fetal bovine serum (Gemini Bio-products Inc., Calabras, Calif.), […] glutamine (Gemini Bio-products Inc., Calabras, Calif.), and 100U Penicillin-100 μg Streptomycin (Gemini Bio-products Inc., Calabras, Calif.). Other cells useful for transfection are 3T3, CHO-K1, HEPG2 and the like cell lines. The cells were harvested with 0.05% Trypsin-0.53 mM EDTA4Na (Life Technologies, Gaithersburg, Md.), pelleted, resuspended in their usual culture medium, diluted in 0.85% NaCl (Sigma, St. Louis, Mo.), and counted in a Coulter Z1® apparatus (Coulter Corporation, Miami, Fla.). COS-7 cells were plated in 96-well flat bottom tissue culture treated polystyrene plates (Corning Inc., Corning, N.Y.) at a density of […] cells per well and grown overnight in a humidified incubator at 37° C. in the presence of 4% CO2. Culture medium was aspirated from the overnight cultures of COS-7 cells, and the cells were overlaid with 75 μl/well of the binary DNA-histone H2A-derived peptide complex, or the corresponding controls. Four hours after transfection, 37.5 μl of Opti-MEM®1, a Tris-Acetate-based (Life Technologies, Gaithersburg, Md.) containing 30% heat inactivated fetal bovine serum (Gemini Bio-products Inc., Celebres, Calif.) was added to each well. Twenty-four hours post-transfection […] of Opti-MEM®1 containing 10% heat inactivated fetal bovine serum (Gemini Bio-products Inc., Celebres, Calif.) was added to each well Forty-eight hours post-transfection, all of the medium in each well was removed. Fifty μl of lysis buffer (0.1% Triton X-100, […] Tris pH 8.0) was added to each well. The plates were then frozen at −70° C. and thawed once. Fifty μl of phosphate-buffered saline (PBS) pH 7.4 was added to each well except for the last column The last column was reserved for a β-galactosidase standard curve. […] In the presence of β-galactosidase, D-galactose is released from CPRG, yielding chlorophenol red; the red reaction product was used to quantitate the amount of β-galactosidase produced. […] The plates were read in a Thermomax plate reader (Molecular Devices Incorporated, Sunnyvale, Calif.) at 575 nm. The optical density values obtained in test wells were then compared to those in the column containing the β-galactosidase standard and the result was expressed as the quantity of β-galactosidase produced per well. […]

The next data set has as its system COS7 cells. The conditions noted are these: polymers in equimolar ratios to their representation in histone H2A; cited from earlier work.

As to “P1: 17-mer that represents amino acids 18-34 of the histone H2A molecule (RSSRAGLQFPVGRVHRL; UniProt P0C0S8 18-34, looked up, fragment) [Peptide P1]”, the “circular dichroism, α-helical structure (minima at 208 and 222 nm)” value in the data set “Circular dichroism” is “some degree of minima at around 208”. Also, the “COS-7 cells transfected (X-gal staining)” value in the data set on COS-7 cells [1] is recorded as “less than 1%”. The “transfection activity (DNA delivery) at the 17-mer's own optimal concentration” value in the data set with COS-7 cells [2] (FIG. 2) was “effective in DNA transfection and delivery”; in the data set on COS-7 cells [2] (FIG. 2, listed as 17-mer) it was “active in DNA delivery”. In addition, the “transfection activity (β-galactosidase production)” value in the data set on COS-7 cells [2] is reported as “only background activity”.
On to KTRSSRAGLQFPVGRVHRIIRK [Peptide 5R], for which the “transfection activity (β-galactosidase production)” value in the data set with COS-7 cells [2] is listed as “significant activity”.
As for `NCCCNCCCCNCCCN` [spermine], in the data set on COS7 cells, the “transfection (β-galactosidase reporter plasmid)” value is given as “ineffective”.
As for `NCCCCNCCCN` [spermidine], the “transfection (β-galactosidase reporter plasmid)” value in the data set on COS7 cells is given as “ineffective”.
